Data: ChEMBL document CHEMBL1201862, “PubChem BioAssay data set” (2004)
The source made the active and inactive calls.

Tested on: not listed separately
Assay: HEp-2 cell cytotoxicity, dose response, cytotoxicity control for RSV inhibitor project, HTS (AID 2410)
Format: functional
Conditions: human respiratory syncytial virus

SMILES	CC50
Cc1c(C(=O)Nc2ccncc2)sc2nc(-c3ccc(F)cc3)cn12	5.09 µM (active)

Biological target: T1, Heat shock factor protein 1 (Mus musculus, UniProt P38532)
T1 sequence (P38532 whole entry): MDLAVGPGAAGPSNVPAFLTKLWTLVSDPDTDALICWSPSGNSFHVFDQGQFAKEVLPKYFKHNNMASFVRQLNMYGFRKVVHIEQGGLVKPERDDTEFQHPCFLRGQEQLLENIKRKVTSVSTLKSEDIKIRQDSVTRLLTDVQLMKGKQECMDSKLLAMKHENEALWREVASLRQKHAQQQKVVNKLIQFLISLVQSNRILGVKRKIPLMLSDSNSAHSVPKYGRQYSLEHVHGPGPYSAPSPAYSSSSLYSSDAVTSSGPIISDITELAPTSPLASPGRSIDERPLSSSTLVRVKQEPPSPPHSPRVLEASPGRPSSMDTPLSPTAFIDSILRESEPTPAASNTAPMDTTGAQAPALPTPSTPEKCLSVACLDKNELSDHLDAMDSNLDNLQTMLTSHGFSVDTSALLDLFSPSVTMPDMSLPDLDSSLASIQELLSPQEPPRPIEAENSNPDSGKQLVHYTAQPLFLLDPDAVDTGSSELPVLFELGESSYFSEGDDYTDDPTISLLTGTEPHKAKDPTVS
Assay: inhibition of MG132-induced HSE-luciferase signal, confirmation, cell-based, NIH3T3, luminescence, dose retest (AID 2382);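 further: NIH3T3 fibroblasts with HSF1-driven luciferase reporter stressed by proteasome inhibitor MG132; luminescence from HSF1-driven luciferase expression after 8 hours of MG132 stress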
Format: functional
Conditions: not given

SMILES	EC50
Nn1c(SCc2ccccc2)nnc1-c1ccco1	> 195 µM (not active)
CCc1ccc(C(=O)NC(CCSC)C(=O)OC)cc1 (stereo unspecified)	> 195 µM (not active)
CCOc1ccccc1CNC(=O)CCn1ccc2cc(S(=O)(=O)N3CCCCC3)ccc21	> 195 µM (not active)
COCCCn1c(-c2ccco2)nc2ccccc2c1=O	> 195 µM (not active)
Cc1ccc(NC(=O)COC(=O)Cn2cnc3ccccc32)cc1S(=O)(=O)N(C)C	> 195 µM (not active)
N#CC1=C(N)Oc2[nH]nc(CSc3ccccc3)c2C12C(=O)Nc1ccccc12 (stereo unspecified)	> 195 µM (not active)
CC1(C)CC2CC(C)(CN2C(=O)CCCN2C(=O)c3ccccc3C2=O)C1 (stereo unspecified)	> 195 µM (not active)

Tested on: not listed separately
Assay: inhibitors of intracellular T. cruzi replication, confirmation, NIH3T3 host cells, beta-gal luminescence (AID 2044);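 further: intracellular parasites grown in NIH/3T3 mouse fibroblasts as host cells; luminescent beta-galactosidase reporter signal from transgenic T. cruzi replicating inside host cells; inhibitors lower the luminescence signal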
Format: functional, cell-based
Conditions: not given

SMILES	EC50
O=C(Nc1ccc2c(c1)OCCO2)c1cccc2nc3ccccc3nc12	2.09 µM (active)
Cc1cccc(CN(C)CCc2ccccn2)c1	0.517 µM (active)

Tested on: not listed separately
Assay: growth suppression of PTEN-null colon cells, dose response, cell-based, HCT116 PTEN knockout (AID 1047);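 further: HCT116 colon tumor cells with PTEN knocked out; cells exposed to compound for 60 hours before readout; potency for loss of cell viability measured by luminescence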
Format: functional
Conditions: not given

SMILES	EC50
COc1ccc(-c2cc(C(F)(F)F)nc(N3CCN(C)CC3)n2)cc1OC	29.2 µM (active)
O=C(Nc1ccc2c(c1)OCCO2)c1cccc2nc3ccccc3nc12	93.9 µM (active)
Cc1nn(Cc2c(F)c(F)c(F)c(F)c2F)c(C)c1NC(=O)c1c(-c2ccccc2)nn(-c2ccccc2)c1C	21.9 µM (active)
COc1ccccc1NCC(O)Cn1c2ccccc2c2ccccc21 (stereo unspecified)	34.3 µM (active)
Cc1c(C(=O)Nc2ccncc2)sc2nc(-c3ccc(F)cc3)cn12	27.9 µM (active)
COC(=O)c1[nH]c2ccc(C)cc2c1NC(=O)NC1CCCCC1	20.2 µM (active)

Tested on: not listed separately
Assay: cytotoxicity toward NIH3T3 fibroblasts, dose response, counter-screen, cell-based, ATP luminescence, mouse fibroblasts (AID 2010);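 further: cells exposed to compound for about 90 hours before reading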
Format: functional
Conditions: not given

SMILES	EC50
O=C(Nc1ccc2c(c1)OCCO2)c1cccc2nc3ccccc3nc12	> 60 µM (not active)
Cc1cccc(CN(C)CCc2ccccn2)c1	> 30 µM (not active)

Tested on: not listed separately
Assay: growth suppression of beta-catenin-knockout colon cells, dose response, cell-based, HCT116, human colon tumor (AID 1045);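 further: HCT116 colon tumor cells with beta catenin knocked out; cells exposed to compound for 60 hours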
Format: functional
Conditions: not given

SMILES	EC50
COc1ccc(-c2cc(C(F)(F)F)nc(N3CCN(C)CC3)n2)cc1OC	30.2 µM (active)
O=C(Nc1ccc2c(c1)OCCO2)c1cccc2nc3ccccc3nc12	47 µM (active)
Cc1nn(Cc2c(F)c(F)c(F)c(F)c2F)c(C)c1NC(=O)c1c(-c2ccccc2)nn(-c2ccccc2)c1C	25.8 µM (active)
COc1ccccc1NCC(O)Cn1c2ccccc2c2ccccc21 (stereo unspecified)	43.6 µM (active)
Cc1c(C(=O)Nc2ccncc2)sc2nc(-c3ccc(F)cc3)cn12	29.3 µM (active)
COC(=O)c1[nH]c2ccc(C)cc2c1NC(=O)NC1CCCCC1	26.5 µM (active)

Tested on: not listed separately
Assay: Luminescence Cell-Based Dose Retest to Confirm Inhibitors of Cancer Stem Cells. [Related pubchem assays (depositor defined):AID2717, AID2721]
Format: functional
Conditions: Homo sapiens

SMILES	AC50
O=C(Nc1ccc2c(c1)OCCO2)c1cccc2nc3ccccc3nc12	2.59 µM (active)

Tested on: not listed separately
Assay: cells
Format: functional
Conditions: not given

SMILES	IC50
COc1ccccc1C1=NOC(COC(=O)c2ccc([N+](=O)[O-])cc2)C1 (stereo unspecified)	3.93 µM (active)
O=C(OCC(=O)C12CC3CC(CC(C3)C1)C2)c1ccccn1	37.8 µM (active)
COC(=O)[C@@H](NC(=O)c1cc(COc2cncc(Cl)c2)on1)c1ccccc1	5.52 µM (active)
CCN(CC)S(=O)(=O)c1ccc(C(=O)OCn2nnc3ccccc3c2=O)cc1	17.9 µM (active)

Biological target: Cytochrome P450 2C19 (Homo sapiens, UniProt P33261)
Assay: Cytochrome panel assay with activity outcomes. Panel member name: p450-cyp2c19 Compounds with AC50 equal or less than 10 uM are considered active
Format: functional
Conditions: not given

Chain of Cytochrome P450 2C19 (P33261 whole entry): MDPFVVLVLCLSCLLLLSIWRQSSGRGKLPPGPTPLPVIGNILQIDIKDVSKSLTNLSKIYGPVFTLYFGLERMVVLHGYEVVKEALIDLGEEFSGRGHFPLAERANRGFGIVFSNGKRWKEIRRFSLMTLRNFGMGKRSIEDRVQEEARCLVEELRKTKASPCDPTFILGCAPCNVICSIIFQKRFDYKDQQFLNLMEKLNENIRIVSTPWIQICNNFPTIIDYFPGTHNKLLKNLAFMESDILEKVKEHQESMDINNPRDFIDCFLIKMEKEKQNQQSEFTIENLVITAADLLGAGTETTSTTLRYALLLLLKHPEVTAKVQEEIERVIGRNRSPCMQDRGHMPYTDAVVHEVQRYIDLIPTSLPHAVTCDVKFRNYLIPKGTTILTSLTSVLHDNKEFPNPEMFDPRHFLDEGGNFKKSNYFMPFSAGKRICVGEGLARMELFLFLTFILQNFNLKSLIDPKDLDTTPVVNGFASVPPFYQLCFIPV

SMILES	AC50
CC(C)COc1ccc(C2(C#N)CC[N+](C)(C)CC2)cc1.[Br-]	inconclusive

Same assay, conditions: read-out: AC50

SMILES	AC50
CC(C)c1nccn1Cc1ccc(Cl)cc1Cl	2 µM (inconclusive)
CCc1cc2c(nc1CC)CCN(CC/C(C)=N/OC[C@@H](O)[C@@H]1O[C@@H]3OC(C)(C)O[C@@H]3[C@H]1O)C2	0.0316 µM (inconclusive)

Biological target: Cytochrome P450 2D6 (Homo sapiens, UniProt P10635);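 further: CYP2D6 member of a cytochrome P450 panel assay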
Assay: not given
Conditions: not given

Chain of Cytochrome P450 2D6 (P10635 whole entry): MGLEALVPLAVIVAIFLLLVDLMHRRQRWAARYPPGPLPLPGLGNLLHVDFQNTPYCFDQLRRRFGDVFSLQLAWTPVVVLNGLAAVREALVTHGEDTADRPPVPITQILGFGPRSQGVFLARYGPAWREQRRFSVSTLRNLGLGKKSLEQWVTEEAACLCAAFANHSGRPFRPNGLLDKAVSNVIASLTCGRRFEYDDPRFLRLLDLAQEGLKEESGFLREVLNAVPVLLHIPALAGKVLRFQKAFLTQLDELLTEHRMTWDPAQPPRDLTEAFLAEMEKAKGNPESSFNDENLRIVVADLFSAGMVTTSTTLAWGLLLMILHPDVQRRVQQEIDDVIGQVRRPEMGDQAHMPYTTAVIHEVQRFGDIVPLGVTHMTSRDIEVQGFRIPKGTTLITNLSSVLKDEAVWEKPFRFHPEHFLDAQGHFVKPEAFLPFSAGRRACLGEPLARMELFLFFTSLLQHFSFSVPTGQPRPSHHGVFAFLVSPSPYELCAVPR

SMILES	AC50
CC(C)c1nccn1Cc1ccc(Cl)cc1Cl	3.16 µM (inconclusive)
COc1ccc(-c2cc(C(F)(F)F)nc(N3CCN(C)CC3)n2)cc1OC	28.2 µM (inconclusive)
O=C(Nc1ccc2c(c1)OCCO2)c1cccc2nc3ccccc3nc12	8.91 µM (inconclusive)
CCc1cc2c(nc1CC)CCN(CC/C(C)=N/OC[C@@H](O)[C@@H]1O[C@@H]3OC(C)(C)O[C@@H]3[C@H]1O)C2	6.31 µM (inconclusive)
CC(C)COc1ccc(C2(C#N)CC[N+](C)(C)CC2)cc1.[Br-]	11.2 µM (inconclusive)
Cc1cccc(CN(C)CCc2ccccn2)c1	2.51 µM (inconclusive)

Biological target: Cytochrome P450 3A4 (Homo sapiens, UniProt P08684);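 further: CYP3A4 tested as one member of a cytochrome P450 panel screen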
Assay: not given
Conditions: not given

Chain of Cytochrome P450 3A4 (P08684 whole entry): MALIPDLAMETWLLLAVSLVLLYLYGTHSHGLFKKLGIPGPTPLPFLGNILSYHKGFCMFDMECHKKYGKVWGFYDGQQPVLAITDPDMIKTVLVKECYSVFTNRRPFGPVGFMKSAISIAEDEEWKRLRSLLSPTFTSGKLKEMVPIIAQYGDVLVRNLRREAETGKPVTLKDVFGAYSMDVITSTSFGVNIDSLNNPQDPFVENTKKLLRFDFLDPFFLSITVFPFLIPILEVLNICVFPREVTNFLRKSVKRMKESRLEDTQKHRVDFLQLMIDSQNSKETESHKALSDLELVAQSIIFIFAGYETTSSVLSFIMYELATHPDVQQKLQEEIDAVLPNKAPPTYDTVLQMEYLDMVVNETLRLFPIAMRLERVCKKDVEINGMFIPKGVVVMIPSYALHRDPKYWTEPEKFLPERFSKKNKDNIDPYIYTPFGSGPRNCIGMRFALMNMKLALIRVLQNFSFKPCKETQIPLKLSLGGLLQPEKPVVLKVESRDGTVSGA

SMILES	AC50
CCc1cc2c(nc1CC)CCN(CC/C(C)=N/OC[C@@H](O)[C@@H]1O[C@@H]3OC(C)(C)O[C@@H]3[C@H]1O)C2	6.31 µM (inconclusive)
CC(C)COc1ccc(C2(C#N)CC[N+](C)(C)CC2)cc1.[Br-]	39.8 µM (inconclusive)

Biological target: Cytochrome P450 2C9 (Homo sapiens, UniProt P11712)
Assay: not given
Conditions: not given

Chain of Cytochrome P450 2C9 (P11712 whole entry): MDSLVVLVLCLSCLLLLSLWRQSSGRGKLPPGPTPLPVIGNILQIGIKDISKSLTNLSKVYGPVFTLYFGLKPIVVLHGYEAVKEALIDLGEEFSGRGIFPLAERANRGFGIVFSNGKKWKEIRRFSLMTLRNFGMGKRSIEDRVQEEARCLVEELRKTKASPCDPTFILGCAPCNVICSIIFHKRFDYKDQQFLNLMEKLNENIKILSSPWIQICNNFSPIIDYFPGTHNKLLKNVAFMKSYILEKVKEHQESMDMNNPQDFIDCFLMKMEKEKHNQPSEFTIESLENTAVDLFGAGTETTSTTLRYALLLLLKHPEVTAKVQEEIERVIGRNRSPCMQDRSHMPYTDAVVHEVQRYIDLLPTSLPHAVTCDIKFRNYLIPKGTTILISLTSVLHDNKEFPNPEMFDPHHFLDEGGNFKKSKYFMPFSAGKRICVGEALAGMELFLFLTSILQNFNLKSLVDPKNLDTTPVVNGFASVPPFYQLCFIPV

SMILES	AC50
Cc1cccc(CN(C)CCc2ccccn2)c1	0.355 µM (inconclusive)
